Test results as given in US10626148B2, “Glycopeptides conjugates and uses thereof” (priority 2015, dated 2020).

Columns and labels:
[1] = system: Vancomycin-sensitive E. faecium (ATCC 19634); experiment: MIC, micro-dilution broth, VSEm; type: cell-based; settings: Enterococcus faecium, ATCC19634
Procedure: (§1) Test compounds were assayed in a micro-dilution broth format. Stock solutions were made by serially diluting the compounds using autoclaved millipore water or broth media. The antibacterial activity of the compounds was determined against gram positive bactreia like methicillin-resistant S. aureus (MRSA), vancomycin-intermediate-resistant S. aureus (VISA), vancomycin-sensitive E. faecium (VSE), vancomycin-resistant E. faecalis and vancomycin-resistant E. faecium (VRE). Antibacterial activity of dipicolyl-vancomycin conjugate conjugate (4) in combination with meropemem was determined against gram-negative bacteria such as K. pneumoniae ATCC BAA2146, clinical isolates K. pneumoniae R3949, K. pneumoniae R3934, E. coli R3336 and A. baumanii R676. Bacteria, to be tested, were grown for about 10 h in the suitable media, MRSA, VISA and gram negative bacteria were grown in Yeast-dextrose broth (about 1 g of beef extract, about 2 g of yeast extract, about 5 g of peptone and about 5 g of NaCl in about 1000 mL of sterile distilled water (pH-7)). For solid media, about 5% agar was used along with above mentioned composition. VSE and VRE were cultured in Brain Heart Infusion broth (Himedia). The bacterial samples were freeze dried and stored at −80° C. About 5 μL of these stocks were added to about 3 mL of the nutrient broth or Brain Heart Infusion broth and the culture was grown for about 6 h at about 37° C. prior to the experiments. This 6 h grown culture gives about 10^9 cfu/mL and this was determined by spread plating method. The 6 h grown culture was diluted to give effective cell concentration of about 10^5 cfu/mL which was then used for determining MIC. Compounds were serially diluted, in sterile water (2-fold dilution is employed) in a way that the working concentration was about 10 μM for MRSA, and VSE while for VRE, VISA and gram negative bacteria; it was about 100 μM. About 50 μL of these serial dilutions were added to the wells of 96 well plate followed by the addition of about 150 μL of bacterial solution. The plates were then incubated at about 37° C., 150 rpm in the incubator and O.D at 620 nm was recorded at an interval of about 24 h using TECAN (Infinite series, M200 pro) Plate Reader. Each concentration had triplicate values and the whole experiment was done at least twice and the MIC value was determined by taking the average of triplicate O.D. values for each concentration and plotting it against concentration. The data was then subjected to sigmoidal fitting.

[2] = system: meropenem-resistant NDM-1 K. pneumoniae R3934; experiment: Sepsis infection model in mice; type: in vivo; settings: CD-1 mice, i.p., 1 h and 24 h post-infection
Procedure: Sepsis infection model: About six-week-old, female CD-1 mice (weight, ˜19-24 g) were used for the experiments. Mice were infected intraperitoneally (i.p.) with a dose of ˜10^6 CFU/mouse of meropenem-resistant NDM-1 K. pneumoniae R3934. Then, mice were treated twice at 1 h and 24 h post-infection with a specified i.p. dose of either saline, meropenem (10 mg/kg), compound 4 (10 mg/kg), or a combination of compound 4 (10 mg/kg) and meropenem (10 mg/kg). Here, colistin (5 mg/kg) was used as a positive control. Mice were euthanized after 48 h post-infection and then liver, spleen, kidney and lungs were collected to find out the bacterial density in these organs. Organs were placed into 10 ml sterile saline on ice, and then homogenized. The dilutions of the homogenate were plated onto agar plates, which were incubated for 24 h at 37° C. The bacterial titer was expressed as log10 CFU/g of organ weight.

[3] = system: Vancomycin intermediate resistant S. aureus; experiment: MIC, micro-dilution broth, VISA; type: cell-based; settings: Staphylococcus aureus
Procedure: as §1

[4] = system: NDM-1 expressing Klebsiella pneumoniae R3934; experiment: microbe, parasite or virus in culture; type: cell-based; settings: Klebsiella pneumoniae R3934
Procedure: as §1
(§2) Then, the antibacterial activities of Dipicolyl-vancomycin conjugate (4) is checked in combination with meropenem against New-Delhi β-lactamase producing gram negative bacteria such as K. pneumoniae BAA2146, clinical isolates K. pneumoniae R3949, K. pneumoniae R3934, E. coli R3336 and A. baumanii R676. […] Further we have also evaluated the antibacterial activity of dipicolyl-vancomycin conjugate (4) in presence of zinc sulphate, wherein it forms dipicolyl-vancomycin-zinc complex (5).

[5] = system: NDM-1 expressing Escherichia coli R3336; experiment: microbe, parasite or virus in culture; type: cell-based; settings: Escherichia coli R3336
Procedure: as §1, §2

[6] = system: NDM-1 expressing Klebsiella pneumoniae R3949; experiment: microbe, parasite or virus in culture; type: cell-based; settings: Klebsiella pneumoniae R3949
Procedure: as §1, §2

[7] = system: NDM-1 expressing Klebsiella pneumoniae ATCC BAA2146; experiment: microbe, parasite or virus in culture; type: cell-based; settings: Klebsiella pneumoniae ATCC BAA2146
Procedure: as §1, §2

[8] = system: Methicillin-resistant S. aureus (ATCC 33591); experiment: MIC, micro-dilution broth, MRSA; type: cell-based; settings: Staphylococcus aureus
Procedure: as §1

MRSA = experiment: Resistance development study, serial passages; type: cell-based, S. aureus; settings: passaged at MIC/2
Procedure: MIC values of the compound 4 and vancomycin were determined against MRSA as described above. For the next day MIC experiment, the bacterial dilution was made by using the bacteria from sub-MIC concentration of the compounds (at MIC/2). Then, the concentration of this bacteria was adjusted to ˜10^5 CFU/mL based on OD600 and subjected to next MIC assay. After a 24 h incubation period, again bacterial dilution was prepared by using the bacterial suspension from sub-MIC concentration of the compound (at MIC/2) and assayed for another MIC experiment. The process was repeated for 25 passages, and the fold increase in MIC was determined. […] Thus bacteria were unable in acquiring resistance to this compound and this emphasizes the longevity of such compounds in clinics.

[9] = system: Vancomycin-resistant E. faecalis (VanA, ATCC 51575); experiment: MIC, micro-dilution broth, VREs; type: cell-based; settings: Enterococcus faecalis, ATCC51575
Procedure: as §1

CN[C@H](CC(C)C)C(=O)N[C@H]1C(=O)N[C@@H](CC(N)=O)C(=O)N[C@H]2C(=O)N[C@H]3C(=O)N[C@H](C(=O)N[C@H](C(=O)NCCCCCCN(Cc4ccccn4)Cc4ccccn4)c4cc(O)cc(O)c4-c4cc3ccc4O)[C@H](O)c3ccc(c(Cl)c3)Oc3cc2cc(c3O[C@H]2OC(CO)[C@H](O)C(O)C2O[C@H]2CC(C)(N)[C@H](O)C(C)O2)Oc2ccc(cc2Cl)[C@H]1O (some centres unmarked) [Compound 4, Dipicolyl-vancomycin conjugate]
MIC [1]: 0.3 µM | in-vivo antibacterial activity, bacterial titer in organs ([2]; 10 mg/kg alone): did not show any activity | in-vivo antibacterial activity, bacterial titer in organs ([2]; compound 4 (10 mg/kg) in combination with meropenem (10 mg/kg)): excellent antibacterial activity | MIC [3]: 0.4 µM | MIC of Meropenem in presence of compound 4 at 12 μM [4]: 3.1 µg/mL | MIC of Meropenem in presence of compound 4 at 12 μM [5]: 12 µg/mL | MIC of Meropenem in presence of compound 4 at 12 μM [6]: 3.1 µg/mL | MIC of Meropenem in presence of compound 4 at 12 μM [7]: 1.5 µg/mL | MIC [8]: 0.6 µM | fold increase in MIC after 25 serial passages (MRSA): remained the same | MIC [9]: 2.5 µM
